Assays:
CD4+CD25+ splenic cells = experiment: flow cytometry of activation and homing markers on CD4+CD25+ splenic cells; format: cell-based, murine; details: after IGF-1 treatment in vitro
Text: The expression of certain markers on the surface of the cell is correlated with the degree of activation of the cells and also controls their trafficking and localization and consequently the compartmentalization of the immune responses. This is again measured using flow cytometric methods. For example, cells expressing high levels of CD62L preferentially migrate to secondary lymphoid tissues. However, as these cells enter the periphery (for example when they travel to affected tissues during an autoimmune process) they rapidly acquire an activated phenotype and express higher levels of CD44. Thus upregulation of CD44 is associated with a higher proliferation rate. […] The importance of this observation comes from the fact that in order to exert their suppressive properties, Tregs need to migrate to the affected tissues first. Therefore, IGF-1 not only induces activation of proliferation but also promotes their correct localization.
Finally, the inventors analyzed the ability of IGF-1 to alter the homing properties of the regulatory T cell subset. In 2003, Fisson et al. defined two distinct population of regulatory T cells in homeostatic conditions. In the steady state, some Tregs remain quiescent for long periods of time, whereas the other Treg population divides extensively and express multiple activation markers. […] This pattern of change is also consistent with a more activated phenotype. On one hand, CD44^hiCD62L^lo Treg populations, but not their CD44^loCD62L^hi counterparts, constantly incorporate BrdU, a synthetic analog of thymidine, into newly synthesized DNA in lymphoid tissues (Matsushima and Takashima, 2010). On the other hand, higher levels of CD62L have been associated with a higher capacity of Tregs to migrate to the lymph nodes, while lower levels allows them to migrate to sites of inflammation (Fisson et al., 2003; Bromley et al., 2008). Thus, T regulatory cells expressing lower levels of CD62L would have a higher inflammation-seeking capacity, which has been associated with higher suppressive potential in various inflammation models (Huehn et al., 2005). […] One, IGF-1 is able to activate a complex pathway resulting in Treg activation leading to proliferation and to selective homing and migration to the sites of inflammation. The second conclusion comes from the observation that sequential migration from blood to the target tissue and then to draining lymph nodes is required for nTreg to differentiate and execute fully their suppressive function, by inhibiting dendritic cells in the peripheral tissue and T effector cell responses in dLN and periphery (Zhang et al., 2009). Thus, IGF-1 treatment not only results in higher numbers of T regulatory cells but also in altering the trafficking of these cells to achieve a higher suppressive effect. […]

DSS-induced colitis = experiment: DSS-induced colitis, systemic IGF-1 delivery; format: in vivo, mice
Text: In this example the inventors examined the ability of IGF-1 to suppress inflammation in a mouse model for IBD (DSS-induced colitis, Wirtz et al, 2007). Mice ingested DSS for 7 days and developed an acute colitis. […] This difference in weight with respect to their respective control group was maintained during the duration of the IGF-1 treatment (FIG. 31).
Administration of DSS in several cycles results in chronic colitis (Wirtz et al., 2007). To also test if the protective effects of IGF-1 lasted beyond the IGF-1 treatment, mice were administered DSS for another cycle at day 37. […] To further confirm that the observed effects were a consequence of colonic inflammation the inventors performed a histochemical analysis of the colon (FIG. 33). DSS-treated mice presented enlargement of the muscle, mucosa and subepithelial layer and foci of infiltrating cell, the main mediators of inflammation. In contrast, DSS-colitis mice receiving IGF-1 during the initial phase of the treatment for a total of 28 days were protected and did no show this prolonged infiltration of leukocytes. Quantification of these histological parameters (FIG. 34) further confirmed the significant long-term protection in IGF-pretreated mice.

Insulin-like growth factor-1 [IGF-1]
CD44 surface expression (CD4+CD25+ splenic cells): upregulated | CD62L surface expression (CD4+CD25+ splenic cells): down | CD71 surface expression (CD4+CD25+ splenic cells): upregulated | histological signs of colitis, infiltration of leukocytes (DSS-induced colitis; IGF-1 for 28 days in initial phase, after re-challenge): protected | body weight loss (DSS-induced colitis; acute phase, DSS for 7 days): showed protection | thickness of the subepithelial layer of the colon (DSS-induced colitis; after re-challenge, versus DSS-only mice, P=0.0004): significant reduction | thickness of the mucosa of the colon (DSS-induced colitis; after re-challenge, versus DSS-only mice, P=0.0007): significant reduction | thickness of the muscle layer of the colon (DSS-induced colitis; after re-challenge, versus DSS-only mice, P=0.053): significant reduction | difference in weight with respect to control group (DSS-induced colitis; during the duration of the IGF-1 treatment): maintained | body weight loss after DSS re-challenge (DSS-induced colitis; second DSS cycle at day 37, no rhIGF-1 delivered in this period): complete protection

Reference: patent publication US20140286906A1, “USE OF IGF-1 IN THE MODULATION OF TREG CELL ACTIVITY AND THE TREATMENT AND PREVENTION OF AUTOIMMUNE DISORDERS OR DISEASES” (priority 2011, published 2014)
